Data reported in patent US20110086899A1, “PHARMACEUTICAL COMPOSITIONS FOR ORAL ADMINISTRATION” (XENON PHARMACEUTICALS INC., priority 2009, published 2011).
“Also recorded” adds a separate entry of the source.

What was measured:
[1] = solubility in excipients and excipient combinations; assay type: physicochemical
Method: Determination of the solubility of a spiro-oxindole compound of the invention, as a racemate, a single enantiomer, or a non-racemic mixture of enantiomers, or a pharmaceutically acceptable salt thereof, in each of the above excipients was carried out by weighing a specified quantity of the excipient into a scintillation vial and then adding a weighed quantity of the spiro-oxindole compound of the invention, as a racemate, a single enantiomer, or a non-racemic mixture of enantiomers, or a pharmaceutically acceptable salt thereof. Heating and vortexing was then applied as required to dissolve the spiro-oxindole compound of the invention, as a racemate, a single enantiomer, or a non-racemic mixture of enantiomers, or a pharmaceutically acceptable salt thereof. If the initial quantity of the spiro-oxindole compound of the invention, as a racemate, a single enantiomer, or a non-racemic mixture of enantiomers, or a pharmaceutically acceptable salt thereof, dissolved, then an additional amount of the spiro-oxindole compound of the invention, as a racemate, a single enantiomer, or a non-racemic mixture of enantiomers, or a pharmaceutically acceptable salt thereof, was added to determine the maximum solubility.
The rationale for preparing each combination is given as well: […]

sodium channel = test: guanidine influx assay (WO 06/110917, BIOLOGICAL EXAMPLE 1); assay type: cell-based; conditions: inhibition of ion flux through a sodium channel
Method: Typically, a successful therapeutic effective amount of an pharmaceutical composition of the invention for oral administration to a mammal, in need thereof, will meet some or all of the following criteria. Animal model efficacy of a spiro-oxindole compound of the invention, as a racemate, a single enantiomer, or a non-racemic mixture of enantiomers, or a pharmaceutically acceptable salt thereof, should be less than about 0.1 μg/Kg to about 100 mg/Kg body weight and the target human dose of a spiro-oxindole compound of the invention, as a racemate, a single enantiomer, or a non-racemic mixture of enantiomers, or a pharmaceutically acceptable salt thereof, should be between 0.1 μg/Kg to about 100 mg/Kg body weight, although doses outside of this range may be acceptable (“mg/Kg” means milligrams of compound per kilogram of body mass of the subject to whom it is being administered). The therapeutic index (or ratio of toxic dose to therapeutic dose) of a spiro-oxindole compound of the invention, as a racemate, a single enantiomer, or a non-racemic mixture of enantiomers, or a pharmaceutically acceptable salt thereof, should be greater than 100. […]

[2] = system: pain following extraction of impacted third molar teeth; test: clinical trial for treatment of dental pain; assay type: in vivo, human; conditions: single 500 mg oral dose of composition comprising COMPOUND B
Method: The purpose of this clinical trial was to compare the safety and efficacy (onset, duration of relief, and overall efficacy) of a single 500 mg dose of a pharmaceutical composition of the invention comprising COMPOUND B versus a placebo dose for relief of pain following extraction of impacted third molar teeth. Sixty-one subjects were enrolled in the study. The mean age for the subjects was 20.4 years, and all subjects were male. The majority of subjects were Caucasians (95.1%). The severity and relief of the pain was measured using an 11-point Pain Intensity Numerical Rating Scale (graded from 0=no pain at all to 10=worst pain imaginable) (PINRS) and a 5-point Categorical Pain Relief Scale (REL). Subjects completed the PINRS after surgery, but before the administration of (S)-enantiomer of the invention. Efficacy variables were derived from the REL and PINRS scores and included total pain relief (TOTPAR), pain intensity difference (PID), and summed pain intensity difference (SPID) and evaluated at time points of 4, 6, 8, and 12 hours after administration of the pharmaceutical composition of the invention comprising COMPOUND B.

[3] = in vivo pharmacokinetic profile after oral administration to dogs; set-up: species or system male beagle dogs; conditions: fasted dogs
Method: The in vivo pharmacokinetic profiles of the pharmaceutical compositions of the invention were determined as follows. Pharmaceutical compositions of the invention were orally administered to dogs in a controlled experiment to determine pharmacokinetic profile of a spiro-oxindole compound of the invention in a pharmaceutical composition of the invention.
Non-naïve male beagle dogs (Marshall Farms USA, Inc.) ranging in body weights from 6-10 Kg were used for the study. Each dog was fasted overnight before dosing. The fasted dogs (n=3/group) were given a single dose of 100 mg capsule (as setout in Table 4 above) or 400 mg (4×100 mg capsule) by oral administration (PO). Food was returned 4-hours post-dose. Blood samples were collected via jugular venipuncture at various timepoints ([…], 1, 2, 4, 6, 8, 24 and 48 hrs) after administration and plasma concentration was determined by liquid chromatography mass spectroscopy (LC-MS/MS). Concentrations of the active ingredient in the plasma samples at each timepoint were determined using standard methods known to one skilled in the art. The active ingredient concentrations were plotted against time (time in hours versus concentration in ng/mL) and the area under the curve extrapolated to infinity (AUCinf), the Cmax (peak plasma concentration of the active ingredient) and Tmax (time after administration of the pharmaceutical composition when peak plasma concentration level occurs) were calculated.

[4] = molecular target: Nav1.7 voltage-gated sodium channel (Homo sapiens, UniProt Q15858); test: inhibition of Nav1.7
Sequence of Nav1.7 voltage-gated sodium channel (Q15858 whole entry): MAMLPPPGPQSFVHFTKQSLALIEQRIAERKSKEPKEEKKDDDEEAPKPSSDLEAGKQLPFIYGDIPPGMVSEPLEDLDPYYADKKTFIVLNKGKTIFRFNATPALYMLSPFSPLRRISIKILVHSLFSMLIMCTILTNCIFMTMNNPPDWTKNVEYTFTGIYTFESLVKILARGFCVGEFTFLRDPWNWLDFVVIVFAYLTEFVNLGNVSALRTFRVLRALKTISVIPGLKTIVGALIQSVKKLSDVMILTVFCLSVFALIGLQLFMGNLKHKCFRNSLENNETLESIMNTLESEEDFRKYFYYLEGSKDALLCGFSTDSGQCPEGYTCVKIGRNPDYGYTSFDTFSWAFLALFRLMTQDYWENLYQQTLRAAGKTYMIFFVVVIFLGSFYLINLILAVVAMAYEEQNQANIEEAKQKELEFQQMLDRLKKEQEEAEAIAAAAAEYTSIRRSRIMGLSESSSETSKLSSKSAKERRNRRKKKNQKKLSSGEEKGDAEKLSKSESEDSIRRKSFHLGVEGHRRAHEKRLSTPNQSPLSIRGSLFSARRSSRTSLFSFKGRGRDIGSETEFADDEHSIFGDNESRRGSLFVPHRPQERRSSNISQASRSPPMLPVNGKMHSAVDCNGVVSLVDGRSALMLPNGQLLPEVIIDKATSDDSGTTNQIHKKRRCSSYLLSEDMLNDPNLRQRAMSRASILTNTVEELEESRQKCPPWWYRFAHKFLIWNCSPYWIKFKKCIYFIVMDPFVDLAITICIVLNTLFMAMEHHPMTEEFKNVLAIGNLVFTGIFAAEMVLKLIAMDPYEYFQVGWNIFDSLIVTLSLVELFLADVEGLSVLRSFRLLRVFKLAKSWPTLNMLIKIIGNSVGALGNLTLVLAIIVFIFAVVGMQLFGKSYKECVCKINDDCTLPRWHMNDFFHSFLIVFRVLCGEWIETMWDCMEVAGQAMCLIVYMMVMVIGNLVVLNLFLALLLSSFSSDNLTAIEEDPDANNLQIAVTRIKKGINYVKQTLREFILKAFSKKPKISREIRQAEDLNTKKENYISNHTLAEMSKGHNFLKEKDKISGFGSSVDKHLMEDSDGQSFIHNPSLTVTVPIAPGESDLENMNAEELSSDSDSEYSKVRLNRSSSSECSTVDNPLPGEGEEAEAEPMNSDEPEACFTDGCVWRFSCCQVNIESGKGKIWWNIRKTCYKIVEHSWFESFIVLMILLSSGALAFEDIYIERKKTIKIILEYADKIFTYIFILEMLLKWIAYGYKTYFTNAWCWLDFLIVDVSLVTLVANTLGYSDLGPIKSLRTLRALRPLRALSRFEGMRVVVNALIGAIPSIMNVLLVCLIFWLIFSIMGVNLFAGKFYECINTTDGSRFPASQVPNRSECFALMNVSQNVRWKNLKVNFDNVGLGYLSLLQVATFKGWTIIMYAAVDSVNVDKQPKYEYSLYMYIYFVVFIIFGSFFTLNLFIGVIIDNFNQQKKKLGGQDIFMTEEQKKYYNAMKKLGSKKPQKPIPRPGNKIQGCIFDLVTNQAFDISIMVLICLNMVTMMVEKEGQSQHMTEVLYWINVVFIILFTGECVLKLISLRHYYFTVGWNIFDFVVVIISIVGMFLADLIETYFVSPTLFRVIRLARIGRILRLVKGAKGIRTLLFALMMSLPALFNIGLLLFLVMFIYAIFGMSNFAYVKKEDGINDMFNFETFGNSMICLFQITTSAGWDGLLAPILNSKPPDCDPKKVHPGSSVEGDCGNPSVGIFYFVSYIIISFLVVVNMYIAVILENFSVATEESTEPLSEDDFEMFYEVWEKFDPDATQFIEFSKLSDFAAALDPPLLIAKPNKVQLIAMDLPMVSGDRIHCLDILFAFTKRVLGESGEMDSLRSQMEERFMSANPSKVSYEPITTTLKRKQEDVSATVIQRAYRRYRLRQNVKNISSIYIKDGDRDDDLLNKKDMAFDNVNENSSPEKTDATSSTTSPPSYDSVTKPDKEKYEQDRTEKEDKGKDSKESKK

| solubility in Labrafac ([1]; excipient Labrafac) | solubility in PEG 400 ([1]; excipient PEG 400) | solution in the excipient combinations of Table 2 ([1]; upon mixing and heating to 70-80° C.) | IC50 (sodium channel) [nM] | absorption following PO administration ([3]; single PO dose 100 mg or 400 mg) | Tmax ([3]; male, beagle, dog, plasma, single PO dose 100 mg capsule (Table 4) or 400 mg (4×100 mg capsule)) [h] | Cmax ([3]; male, beagle, dog, single PO dose 100 mg capsule (Table 4) or 400 mg (4×100 mg capsule), plasma) [ng/mL] | solubility in caprylic/capric glycerides such as Imwitor 742 ([1]; excipient Imwitor 742, compared with other excipients) | inhibition of Nav1.7 [4] | Structure (SMILES) | solubility in Labrasol ([1]; excipient Labrasol) | onset of action [2] | pain relief compared to placebo [2] | statistical significance from the placebo [2] | primary and all secondary endpoints (TOTPAR, PID, SPID) versus placebo ([2]; 4, 6, 8 and 12 hours) |
| --- | --- | --- | --- | --- | --- | --- | --- | --- | --- | --- | --- | --- | --- | --- |
| readily soluble in Labrafac ®. The | readily soluble in PEG 400. PEG | suitable for producing a solution | < 1000 |  |  |  |  |  | O=C1N(Cc2ccc(C(F)(F)F)o2)c2ccccc2C12COc1cc3c(cc12)OCO3 (racemic) [COMPOUND A, 1′-{[5-(trifluoromethyl)-2-furyl]methyl}spiro[furo[2,3-f][1,3]benzodioxole-7,3′-indol]-2′(1′H)-one] | best excipient; also recorded: soluble in Labrasol ®, the excipient |  |  |  |  |
|  |  |  |  | readily absorbed | 1 to 3 | 1300 to 1600 | less than other excipients | has been shown to inhibit | O=C1N(Cc2ccc(C(F)(F)F)o2)c2ccccc2[C@]12COc1cc3c(cc12)OCO3 [COMPOUND B, (S)-1′-{[5-(trifluoromethyl)-2-furyl]methyl}spiro[furo[2,3-f][1,3]benzodioxole-7,3′-indol]-2′(1′-H)-one] |  | slow onset of action | higher | not achieved | consistent analgesic trend |
